In patent US20240002441A1, “PEPTIDES AND USES THEREOF IN MODULATION OF AMYLOID-BETA PROTEIN DEGRADING PROTEASES” (priority 2020, published 2024):

Key:
IDE = biological target: T1, IDE (Homo sapiens, UniProt P14735); experiment: QFS assay of Aβ-degrading enzymes: IDE (Example 6); format: biochemical
T1 sequence (P14735 1-1019): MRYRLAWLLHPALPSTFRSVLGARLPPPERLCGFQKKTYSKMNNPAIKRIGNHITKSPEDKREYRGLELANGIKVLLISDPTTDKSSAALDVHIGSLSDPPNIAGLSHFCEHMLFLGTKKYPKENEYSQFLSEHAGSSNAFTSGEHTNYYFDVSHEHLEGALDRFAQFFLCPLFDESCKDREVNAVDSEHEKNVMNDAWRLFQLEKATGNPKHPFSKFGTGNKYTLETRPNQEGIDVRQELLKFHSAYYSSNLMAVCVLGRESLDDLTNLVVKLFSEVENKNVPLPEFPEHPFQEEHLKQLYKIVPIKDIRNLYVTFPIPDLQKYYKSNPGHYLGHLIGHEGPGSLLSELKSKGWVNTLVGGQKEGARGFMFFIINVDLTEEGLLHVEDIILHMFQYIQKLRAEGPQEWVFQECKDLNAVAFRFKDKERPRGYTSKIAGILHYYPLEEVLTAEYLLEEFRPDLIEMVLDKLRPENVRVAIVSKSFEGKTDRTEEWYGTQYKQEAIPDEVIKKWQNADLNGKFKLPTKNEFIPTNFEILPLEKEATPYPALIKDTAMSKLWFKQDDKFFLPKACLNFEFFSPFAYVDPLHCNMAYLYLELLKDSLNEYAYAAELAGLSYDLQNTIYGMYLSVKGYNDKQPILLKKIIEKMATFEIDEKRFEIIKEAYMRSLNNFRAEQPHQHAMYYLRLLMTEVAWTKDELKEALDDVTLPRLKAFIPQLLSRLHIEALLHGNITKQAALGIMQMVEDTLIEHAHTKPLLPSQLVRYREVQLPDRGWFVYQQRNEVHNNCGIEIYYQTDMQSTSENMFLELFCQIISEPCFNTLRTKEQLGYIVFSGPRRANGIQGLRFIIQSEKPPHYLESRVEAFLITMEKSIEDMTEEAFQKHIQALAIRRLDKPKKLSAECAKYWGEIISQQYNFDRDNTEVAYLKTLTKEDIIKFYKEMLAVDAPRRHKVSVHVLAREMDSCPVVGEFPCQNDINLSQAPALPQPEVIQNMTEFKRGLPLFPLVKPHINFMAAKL
Protocol: Plate reader-based enzyme assays were performed using a quenched fluorescent substrate (QFS) in a 96-well format using a SpectraMAX M4 Microplate reader (Molecular Devices). The increase in fluorescence following addition of QFS (40 μM) was taken as evidence of enzyme activity. Fluorescence was monitored over 2 h at 37° C. using κEx=320 nm and λEm=405 nm. Assays were conducted in black 96-well plates. Specific enzyme activity was expressed as a rate of substrate cleavage calculated using a standard curve of 7-methoxy-coumarin-4-acetic acid.
In all plate reader-based enzyme assays using QFS, the reaction rate (μmol of substrate cleaved/min) was calculated using linear regression analysis (GraphPad Prism software version 8.01). The reaction rates calculated were used to generate the enzyme kinetic parameters Vmax and Km through non-linear regression analysis (GraphPad Prism software, version 8.01; Michaelis-Menten equation). Where indicated, enzyme activity in the presence of peptide was expressed as a % of the enzyme alone. Data were expressed as mean±SEM and statistical significance was determined using t-tests or one-way ANOVAs followed by Tukey's post-hoc test. P<0.05 was considered as statistically significant. In all assays conducted using 96-well plates, the reaction mixtures in each well were considered an independent experiment.
SEQ ID NO:2 was assessed in a QFS assay against enzymes NEP, ECE1, ECE2, ACE1, ACE2, IDE and MMP-2 using the method in Example 2 and the following procedure. NEP, ACE1, ECE2 (0.05 ng/μL), ACE2, IDE (0.10 ng/μL), and ECE1 (6.4 ng/μL) were incubated with SEQ ID NO:2 (0.9-26 μM) or scrambled control (9 μM) for 1 h at 37° C. Prior to use, MMP2 (0.50 ng/μL) was activated using p-aminophenylmercuric acetate to a final concentration of 100 μM for 1 h at 37° C. Following activation, MMP2 was incubated with SEQ ID NO:2 for 1 h at 37° C. before adding the appropriate QFS.

STZ diabetic mouse model = experiment: STZ diabetic mouse model, kidney inflammation and fibrosis, ND and STZ mice (Example 14); format: in vivo; conditions: for post treatment blood glucose compared with vehicle: 1 mg/kg s.c. osmotic minipump
Protocol: Mice were divided into four groups, two groups of mice remained untreated (ND) and two groups of mice were treated with STZ (150 mg/kg) by i.p. injection 1 week before starting treatment with SEQ ID NO. 2 or vehicle. Before treatment with SEQ ID NO. 2 or vehicle began, one week post STZ administration, 24 hour urine and blood samples were taken and blood glucose was assessed in all mice. The two ND groups and the two STZ treatment groups were then treated with either vehicle (10% DMSO/PBS) only or SEQ ID NO: 2 (1 mg/kg) subcutaneously by osmotic minipump. The mice were then monitored for 3 months before sacrifice. Monitoring included assessing the weight of each animal every day, taking blood samples biweekly and 24 hour urine samples at 1, 2 and 3 months post treatment. 24 hour urine samples were collected from mice placed in metabolic cages. At 3 months after treatment, a blood sample was collected (cardiac bleed) and the animals were sacrificed. Kidney and heart tissues were collected and weight and the tissues processed for in vitro analysis.
Urine samples were analysed for urinary albumin ELISA. The volume of urine was measured and then samples were diluted by 1:8000 with water. The samples were incubated for 1 h in antibody-coated 96-well plates (in duplicate). After incubation, a Development solution (100 μL) containing sandwich antibody was added to the wells and the samples incubated for 10 minutes in the dark. Stop solution (100 μL) was added and the optical density was measured at 450 nm.
The kidney tissue samples were analysed for fibrosis using Masson's trichrome staining. 4 μm-thick paraffin-embedded kidneys were sectioned. After dewaxing, sections were post-fixed in Bouin's fixative overnight. The slides were stained in Weigert's iron haematoxylin followed by Biebrich scarlet-acid fuchsin solution. The slides were differentiated in phosphomolybdic-phosphotungstic acid solution and then further stained in aniline blue solution. After differentiation in 1% acetic acid solution the slides were mounted with mounting medium and the sections were imaged on an Aperio Slide Scanner at ×20 magnification. The images were analysed on ImageJ.
Kidney samples in mice sacrificed one month after treatment were also analysed for the presence of IL-6 by western blot analysis. Homogenised kidney samples were heat-denatured and separated using SDS-PAGE. The membranes were incubated with IL-6 primary antibody at 1:500 dilution, followed by incubation with a secondary antibody (goad anti-rabbit antibody at 1:16000) and developed the following day using enhanced chemiluminescence (ECL) as a substrate. β-actin was used as a loading control.

H-SLFELGKMIL-NH2 [SEQ ID NO:2, H2N-SLFELGKMIL-NH2]
IDE activity compared with respective enzyme alone (IDE; peptide 2 μM (FIG. 2c)): did not increase
IDE activity compared with respective enzyme alone (IDE; peptide 9 μM, significantly less compared with ACE2 and NEP): significantly higher
IDE activity, concentration dependence (IDE; peptide 0.9-26 μM): increased the activity
post treatment blood glucose compared with vehicle (STZ diabetic mouse model; ND mice): similar
urine volume per day (STZ diabetic mouse model; ND mice, before and after treatment): the same before or after treatment
kidney:bodyweight ratio (STZ diabetic mouse model; ND mice, peptide or vehicle): remained the same
urinary albumin (STZ diabetic mouse model; ND mice, peptide or vehicle): remained the same
kidney:bodyweight ratio, increase compared with STZ mice treated with vehicle (STZ diabetic mouse model; STZ mice): even more
kidney IL-6 expression compared with vehicle treated STZ mice (STZ diabetic mouse model; STZ mice sacrificed one month after treatment, western blot): lower
post treatment blood glucose compared with vehicle (STZ diabetic mouse model; STZ mice): marginally lower
urinary albumin (STZ diabetic mouse model; STZ mice, 2 and 3 months post treatment, with either vehicle or peptide): increased
renal cortical fibrosis compared to STZ mice treated with vehicle (STZ diabetic mouse model; STZ mice, Masson's trichrome staining): tendency to be lower
urine volume per day (STZ diabetic mouse model; STZ mice, whether treated with peptide or vehicle): increased urine volume per day
